US7317025B2, “Non-peptidic NPY Y2 receptor inhibitors” (Johnson & Johnson Pharmaceutical Research & Development, LLC, priority 2003, dated 2008)
Where two headings read alike, the source gives them in different places.

Target: T1, Y2 receptors (Homo sapiens, UniProt P49146)
T1 construct: KAN-Ts endogenously expressing Y2 receptors; endogenous in cells; host or cells: KAN-Ts cells (membrane preparation)
T1 sequence (P49146 1-381): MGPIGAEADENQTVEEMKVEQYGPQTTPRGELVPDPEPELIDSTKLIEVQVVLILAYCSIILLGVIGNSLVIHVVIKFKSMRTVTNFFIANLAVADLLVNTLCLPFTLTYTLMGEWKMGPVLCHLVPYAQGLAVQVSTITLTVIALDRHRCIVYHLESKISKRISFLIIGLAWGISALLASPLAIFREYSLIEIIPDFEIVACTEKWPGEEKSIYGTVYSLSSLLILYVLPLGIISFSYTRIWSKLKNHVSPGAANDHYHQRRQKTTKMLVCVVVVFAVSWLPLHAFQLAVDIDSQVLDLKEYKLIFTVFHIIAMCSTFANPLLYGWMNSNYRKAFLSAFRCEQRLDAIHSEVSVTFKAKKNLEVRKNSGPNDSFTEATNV
Test: Radioligand binding assay, [125I]PYY, KAN-Ts membranes
Procedure: Radioligand Binding Assay
KAN-Ts endogenously expressing Y2 receptors were used for the radioligand binding assay. Cells were grown to confluence on 150 cm^2 tissue culture plates, washed with phosphate-buffered saline (PBS), and scraped into 50 mL tubes. After centrifugation, the supernatant was aspirated, and the pellets frozen and stored at −80° C. Thawed pellets were homogenized with a polytron tissue grinder for 15 sec in 20 mM Tris-HCl, 5 mM EDTA. The homogenate was centrifuged at 800×g for 5 min and the collected supernatant was recentrifuged at 25000×g for 25 min. The resulting pellet was resuspended in binding buffer (20 mM HEPES, 120 mM NaCl, 0.22 mM KH2PO4, 1.3 mM CaCl2, 0.8 mM MgSO4). Membranes were incubated with [^125I]PYY (80 pM) in the presence or absence of test compound for 1 h at rt. The reaction was stopped by filtration through GF/C filter plates pre-soaked in 0.3% polyethylenimine and subsequently washed with Tris 50 mM, 5 mM EDTA buffer. Plates were dried for 1 h in a 55° C. oven, scintillation fluid was added and the radioactivity was counted in a Packard TopCount. Specific binding to the NPY receptor subtypes was determined by radioactivity that was bound in the presence of […] NPY. Each binding experiment was repeated three to eight times, each in duplicate. IC50 values (i.e. concentration of unlabelled peptide or antagonist required to compete for 50% of specific binding to the radioligand) were calculated using the GraphPad Prism software (GraphPad Software Inc., San Diego Calif.) with a fit to a sigmoidal dose response curve. Data were expressed as pIC50 values where pIC50=−log IC50.

[1] = membranes of KAN-Ts cells endogenously expressing Y2 receptors, [125I]PYY (80 pM), 1 h at rt

Structure (SMILES)	IC50	IC50 [1]
CC(=O)N1CCc2ccc(N(C(=O)/C=C/c3ccccc3)C3CCN(C(=O)c4ccccc4)CC3)cc21 [Example 39, trans-N-(1-Acetyl-2,3-dihydro-1H-indol-6-yl)-N-(1-benzoyl-piperidin-4-yl)-3-phenyl-acrylamide]	29 µM	–
CC(=O)N1CCc2ccc(N(C(=O)/C=C/c3ccccc3)C3CCCN(Cc4ccccc4)C3)cc21 (stereo not drawn) [Example 45, trans-N-(1-Acetyl-2,3-dihydro-1H-indol-6-yl)-N-(1-benzyl-piperidin-3-yl)-3-phenyl-acrylamide]	–	16 µM
CC(=O)N1CCc2ccc(N(C(=O)/C=C/c3ccccc3)C3CCN(Cc4ccccc4)C3)cc21 (stereo not drawn) [Example 46, trans-N-(1-Acetyl-2,3-dihydro-1H-indol-6-yl)-N-(1-benzyl-pyrrolidin-3-yl)-3-phenyl-acrylamide]	–	18 µM
CC(=O)N1CCc2ccc(N(CCCNCc3ccccc3)C(=O)/C=C/c3ccccc3)cc21 [Example 47, trans-N-(1-Acetyl-2,3-dihydro-1H-indol-6-yl)-N-(3-benzylamino-propyl)-3-phenyl-acrylamide]	–	12 µM
C=CCN(CCCN(C(=O)/C=C/c1ccccc1)c1ccc2c(c1)N(C(C)=O)CC2)Cc1ccccc1 [Example 48, trans-N-(1-Acetyl-2,3-dihydro-1H-indol-6-yl)-N-[3-(allyl-benzyl-amino)-propyl]-3-phenyl-acrylamide]	–	12 µM
